Measured values from patent publication US9303019B2, “Amino-pyrroline derivatives, and use thereof in the prevention and/or treatment of metabolic syndrome” (UNIVERSITE DE STRASBOURG, priority 2012, dated 2016).

Key:
3T3-L1 adipocytes = experiment: Secretion of adiponectin by differentiated 3T3-L1 adipocytes (ELISA); type: cell-based, murine; conditions: 3 μmol/l, 6 h; control 212.6±19.1
Experimental: 3T3-L1 murine preadipocytes were cultured to confluence at 37° C. in DMEM medium containing 4.5 g/litre of D-glucose, 10% FCS and antibiotics. At confluence, differentiation of the 3T3-L1 adipocytes was initiated through the addition over 48 h of a mixture containing 100 μM methyl-isobutylxanthine, 100 nm dexamethasone and 175 nM insulin. The cells were then passaged every 2-3 days in DMEM, 10% FCS and 175 nM insulin. More than 95% of cells had the phenotype of mature adipocytes 10 days after confluence was reached.
To determine the secretion of adiponectin by mature adipocytes, differentiated 3T3-L1 adipocytes (10 days after confluence) were placed in culture in 12-well plates and washed three times with DMEM, then cultured for 6 h in DMEM alone, in the absence or presence of 3 μM of compound 1. In some wells the antagonist selective for the imidazoline receptors I1, efaroxan, was added (100 μM) 30 min before exposure to compound 1.
The culture medium was then recovered, centrifuged for 3 min at 10 000 g to remove cell contaminants, and the supernatant was stored at −80° C. until use. After two washings in cold PBS, the adipocytes were collected in PBS, homogenized and stored at −80° C. An aliquot of adipocyte homogenate was stored for protein determination. The adiponectin was measured using an ELISA kit following the manufacturer's recommendations. The adiponectin concentration was normalized with the cell protein content.

α2-adrenergic receptors = experiment: Binding assay of the α2-adrenergic receptors on CHO cell membranes with [3H]RX821002; set-up: species or system human
Experimental: These membranes (30 μg proteins/ml for CHO-hα2A and CHO-hα2B, 100 μg protein/ml for CHO-hα2C) were incubated for 60 min at ambient temperature in binding buffer (33 mM Tris-HCl, 1 mM EDTA, pH 7.5) in a final volume of 500 μL containing 0.8 or 1 or 2 nM [^3H]RX821002 respectively for the adrenergic receptors hα2A, hα2B and hα2C.
Incubation was halted by rapid vacuum filtration through GF/C glass fibre filters followed by three successive washings in ice-cold binding buffer.
Non-specific binding was determined using 10 μM phentolamine.
The competitive assays were analyzed by non-linear regression using the GraphPad programme.
Ki values were determined using the method described by Cheng and Prussof (Cheng, Y. C.; Prusoff, W. H. Relationship between the Inhibition Constant (Ki) and the Concentration of Inhibitor which causes 50 percent Inhibition (I50) of an Enzymatic Reaction. Biochem. Pharmacol. 1973, 22, 3099-3108).

Sprague-Dawley rats = experiment: Acute i.v. treatment: renal sympathetic nerve activity and hemodynamic parameters in anesthetized rats; type: in vivo, rat; conditions: 10 mg/kg i.v.
Experimental: Male Sprague-Dawley rats (10 weeks; Laboratoires Charles River, L'Arbresle, France) were anesthetized with urethane (1.5 g/kg i.p., supplemented with 0.1 g/kg i.v. if necessary) and placed on a hot blanket to maintain rectal temperature at 37° C.
The left renal nerve was carefully isolated and a major branch of the nerve was placed on a bipolar platinum-iridium electrode insulated with silicone gel (604A and B; Wacker Chemie, Munich, Germany). Throughout the experiment the rat was ventilated by means of a tracheal cannula (7-8 ml/kg×72 cycles/min) with a mixture of oxygen and air (˜8%-20%).
Arterial pressure was measured by connecting the arterial catheter to a pressure transducer (TNF-R; Ohmeda, Bilthoven, Holland) coupled to an amplifier (model 13-4615-52; Gould, Cleveland, Ohio).
Renal sympathetic nerve activity (RSNA) was amplified (×50,000), the pass-band filtered (300-3000 Hz; Model P-511J; Grass, Quincy, Mass.) and rectified with a home-built analogue rectifier including a low frequency filter with a cut-off frequency of 150 Hz.
The 2 parameters were continuously recorded using a computer equipped with an analogue-digital converter (model AT-MIO-16; National Instruments, Austin, Tex.) and LabVIEW 5.1 software (National Instruments).
Arterial pressure and RSNA were recorded before (baseline) and after administering compound 1 (10 mg/kg, i.v.). At the end of the recording session, chlorisondamine, a ganglionic blocker, was administered (2.5 mg/kg, i.v.) to evaluate the level of background noise which was then subtracted from all RSNA data for subsequent analyses. At the end of the experiment, the rats were euthanized with an intravenous overdose of sodium pentobarbital.

SHHF rats = experiment: Chronic treatment: body weight and food consumption in SHHF rats; type: in vivo, rat; conditions: 20 mg/kg/d
Experimental: Male SHHF rats (spontaneously hypertensive, heart failure) aged 12 weeks were used for this study (Charles River breeding centre, L'Arbresle, France).
Compound 1 was administered in the drinking water for 12 weeks at a dose of 20 mg/kg/d (n=17). Water consumption was regularly measured to adjust the concentration of compound 1. Non-treated control SHHF rats had access to normal water (n=10).
Body weight, water and food intake were measured every day. After a treatment time of 12 weeks, blood samples were taken. Three days later, arterial pressure and heart rate were recorded and a glucose tolerance test was performed.

## Cc1c(Cl)cccc1NC1=NCC(C)C1.Cl (centres unmarked) [Compound 1, (3-Chloro-2-methyl-phenyl)-(4-methyl-4,5-dihydro-3H-pyrrol-2-yl)-amine hydrochloride]
3T3-L1 adipocytes
  secretion of adiponectin: 378±38 ng/ml/mg of proteins
α2-adrenergic receptors; CHO cells
  Ki: > 10 µM
α2-adrenergic receptors; concentration of 10^−5 M
  displacement at the α2-adrenergic receptor: No significant displacement
Sprague-Dawley rats
  duration of the reduction in renal sympathetic activity, arterial pressure and heart rate: more than one hour
Sprague-Dawley rats; urethane-anesthetized rats
  reduction in renal sympathetic activity: 50%
Sprague-Dawley rats; vs. 83.2±4 baseline
  diastolic arterial pressure (DAP): 58.6±3.4 mmHg
Sprague-Dawley rats; vs. 108.±3.4 baseline
  mean arterial pressure (MAP): 77.4±3.6 mmHg
Sprague-Dawley rats; vs. 141.7±2.3 baseline
  systolic arterial pressure (SAP): 105.3±3 mmHg
Sprague-Dawley rats; vs. 331.4±14 baseline
  heart rate: 288.4±10.3 bpm
SHHF rats; after 9 weeks until end of treatment
  body weight: lower body weight than the controls
SHHF rats; after one week's treatment
  food consumption: below that of the controls
